Measurements from PMC11969438 (Inorganic Chemistry Frontiers, 2025).

How the values were obtained:
[1] = tested on: IRF pathway (STING-dependent); assay: IRF-inducible luciferase reporter in THP1-Dual reporter cell model; assay type: cell-based, human; details: for EC50: 24 h exposure, normalized to cell viability, oxaliplatin in combinations 5 μM
From the text: (§1) The THP1-Dual™ reporter cell model for simultaneously monitoring the activity of the IRF and NF-κB pathway contains an IRF-inducible luciferase reporter under the control of an ISG54 minimal promoter in conjunction with five interferon (IFN)-stimulated response elements, and an induced SEAP driven by an IFN-β minimal promoter fused to five copies of the NF-κB consensus transcriptional response element and three copies of the c-Rel binding site. The luciferase and SEAP reporter are measurable in the cell culture supernatant using QUANTI-Luc™ 4 Lucia/Gaussia (InvivoGen) and QUANTI-Blue™ (InvivoGen) solution, respectively. Cells were seeded at 1 × 10^5 cells per well in 96-well plates in RPMI-1640 medium, supplemented with 10% FCS, L-glutamine and Pen-Strep. After 2 h of recovery, the compounds were applied at the concentrations indicated in triplicate. The cell culture supernatant (SN) was collected after 24 h of drug incubation and secreted luciferase and SEAP reporter levels were measured according to the manufacturer's recommendations. In brief, for the detection of luciferase, 20 μL of SN were transferred into 96-well white opaque plates, and 30 μL of QUANTI-Luc™ reagent were added per well using an injector module in a multimode microplate reader (Tecan Spark, Zurich, Switzerland). Luminescence was recorded at a reading time of 0.1 second. For the detection of SEAP, 10 μL of SN were transferred to 96-well plates and 90 μL of QUANTI-Blue™ were added per well. Absorbance was measured at 620 nm. Half-maximal effective concentrations (EC50 values) were derived via interpolation from dose–response curves, modeled with the four-parameter logistic (4PL) nonlinear regression model in GraphPad Prism. For comparison, the maximal response rate of the prodrug was depicted in the percent of the maximal response rate achieved by SR-717 or MSA-2 (%EMAX) at the respective concentrations tested. Activatability, tested in co-incubation experiments with AA (50 μM), was expressed as the area under the curve (AUC) ratio of +AA vs. −AA-treated cells. The STING-dependency of the reporter induction was tested by co-administration of the STING inhibitor H-151 (10 μM), added to the cell culture medium 2 h before applying the investigated compounds. In addition to monitoring secreted reporter levels, the cell viability of the reporter cells was determined after 24 h of drug treatment by an MTT-based cell viability assay.

[2] = tested on: NF-κB pathway (STING-dependent); assay: NF-κB-inducible SEAP reporter in THP1-Dual reporter cell model; assay type: cell-based, human; details: for EC50: 24 h exposure, normalized to cell viability, oxaliplatin in combinations 5 μM
From the text: as §1

[3] = tested on: THP1-Dual, HCT116, HCT116/OxR and CT-26 cells; assay: MTT-based cell viability assay, 72 h, statements over all investigated cell lines; design: species or system human and murine; details: none of the investigated cell lines vulnerable, read-out: IC50 of free single agent
Experimental: Cell models were seeded (2–2.5 × 10^3 cells per well) in 96-well plates. After 24 h of recovery, the compounds were applied at the concentrations indicated in triplicate. Cell viability was determined after 72 h of continuous drug incubation using an MTT-based cell viability assay (EZ4U, Biomedica, Vienna, Austria) according to the manufacturer's recommendations. Absorbance was measured at 450 nm (vs. 620 nm as reference) using a multimode microplate reader (Tecan Spark, Zurich, Switzerland). Half-maximal inhibitory concentrations (IC50 values) were derived via interpolation from dose–response curves, modeled with the four-parameter logistic (4PL) nonlinear regression model in GraphPad Prism (La Jolla, CA, USA) from at least three independent experiments.

THP1-Dual cells [4] = assay: Quantitative RT-PCR of target genes downstream of STING; assay type: cell-based, human; details: 24 h, prodrugs 100 μM, MSA-2 25 μM
Experimental: The THP1-Dual cell model was seeded at 1 × 10^6 cells per well in six-well plates. After 24 h of recovery, the compounds were applied at the concentrations indicated. After 24 h of drug exposure, total RNA was isolated using TRIzol reagent (Thermo Fisher Scientific, MA, USA), as described previously.[12] RNA was reverse transcribed into cDNA using RevertAid Reverse Transcriptase (Thermo Fisher Scientific). Real-time PCR was performed using the GoTaq® RT-qPCR system (Promega) with a CFX96 Touch Real-Time PCR Detection System (Bio-Rad Laboratories). Relative mRNA levels were quantified using the 2^−ddCT method.[54] RPL41 was used as a housekeeping gene. Human-specific primers were purchased from Eurofins Genomics (Ebersberg, Germany) with the following sequences: RPL41: fwd (5′-[…]-3′), rev (5′-[…]-3′); IFNB1: fwd (5′-CTTGGATTCCTACAAAGAAGCAGC-3′), rev (5′-[…]-3′); ISG15: fwd (5′-[…]-3′), rev (5′-[…]-3′); IFIT1: fwd (5′-[…]-3′), rev (5′-[…]-3′); CXCL10: fwd (5′-[…]-3′), rev (5′-[…]-3′); and CCL5: fwd (5′-[…]-3′), rev (5′-[…]-3′).

THP1-Dual cells [5] = assay: Western blot analysis of STING downstream pathway, DNA damage and cell death markers; assay type: cell-based, human; details: 24 h
Experimental: The THP1-Dual cell model was seeded at 1 × 10^6 cells per well in six-well plates. After 24 h of recovery, the compounds were applied at the concentrations indicated. After 24 h of drug exposure, whole-cell protein isolation was performed as described previously.[14] Sodium dodecyl sulfate polyacrylamide gel electrophoresis was performed. Proteins were transferred onto polyvinylidene difluoride membranes (Thermo Scientific, Waltham, MA, USA). Antibodies targeting STING (##13 647; 1 : 1000), phospho-STING (#19 781; 1 : 500), TBK1 (#3504; 1 : 500), IRF-3 (#4302; 1 : 500), phospho-p65 (#3033; 1 : 500), ISG15 (#2743; 1 : 1000), caspase-3 (#9665; 1 : 1000), cleaved caspase-3 (#9661; 1 : 1000), PARP (#9532; 1 : 1000), and cleaved PARP (#9541; 1 : 1000) were purchased from Cell Signaling Technology (Danvers, MA, USA). The p65 antibody (#sc-372; 1 : 1000) was purchased from Santa Cruz and the phospho-H2A.X antibody (#05-636-I; 1 : 500) was obtained from Merck (Darmstadt, Germany). The anti-β-actin (#5441; 1 : 2000) antibody was obtained from Sigma-Aldrich. The anti-mouse IgG (#A0168; 1 : 10 000) horseradish peroxidase (HRP)-coupled secondary antibody was purchased from Sigma-Aldrich, and the anti-rabbit IgG (#7074; 1 : 5000) HRP-linked secondary antibody was obtained from Cell Signaling Technology.

CT-26 tumors = assay: Anticancer efficacy in vivo, syngeneic colorectal carcinoma; design: species or system BALB/c mice; details: i.v. twice a week for two weeks, equimolar to 9 mg kg^−1 oxaliplatin
Experimental: Tumor size was determined daily via manual caliper measurement. […] Animals were euthanized via cervical dislocation.

THP1-Dual cells [6] = assay: Cytokine and chemokine secretion in cell culture supernatant, Luminex; assay type: cell-based, human; details: 24 h, prodrug 100 μM, MSA-2 25 μM
Experimental: Quantification of secreted protein targets in either cell culture SN or in plasma of treated animals was performed using a ProcartaPlex (96-well) multiplex assay panel (Thermo Fisher Scientific) in the xMAP detection platform (Luminex). For the in vitro detection of secreted proteins, THP1-Dual cells were seeded at 1 × 10^5 cells per well in 96-well plates in RPMI-1640 medium, supplemented with 10% FCS, L-glutamine and Pen-Strep. After 24 h of recovery, the compounds were applied at the concentrations indicated in triplicate.
After 24 h of drug incubation, the cell culture SN of technical triplicate was collected, pooled, centrifuged (400g, 10 min, 4 °C), transferred into a fresh tube, and stored at −20 °C.
Next, the ProcartaPlex (96-well) multiplex assay panel was performed according to the manufacturer's recommendations. In brief, the capture bead mix was incubated with test samples (undiluted SN or mouse plasma) or standard mix overnight. The SN of three independent experiments or the plasma of four animals per treatment group was loaded onto the multiplex assay plate. Next, biotinylated detection antibody mix and Streptavidin-PE were added to the plate. Following the recommended washing steps, the samples were incubated in a reading buffer and were measured using a Luminex xMAP platform (Bio-Plex MAGPIX Multiplex Reader; Bio-Rad Laboratories) and analyzed using xPONENT software.

[7] = Reduction kinetics with 10 eq. L-ascorbic acid in phosphate buffer, UHPLC; assay type: physicochemical; details: 10 eq. AA, PB pH 7.4, 20 °C; for original compound left in presence of AA: after 5 h
Experimental: (§2) PB (150 mM, pH 7.4) containing 1 mM platinum compound was incubated at 20 °C, with and without the addition of 10 eq. of AA. The reaction was monitored using a Thermo Scientific Dionex UltiMate 3000 UHPLC system with a Waters Acquity UPLC BEH C18 1.7 μm 3.0 × 50 mm column. Milli-Q water containing 0.1% formic acid and acetonitrile containing 0.1% formic acid were used as eluents. A gradient of 5–95% over 5 min was used with a flow of 0.6 mL min^−1. To evaluate the current state of the reaction, the peak area of the parental complex was used.

[8] = Hydrolytic stability in phosphate buffer, UHPLC; assay type: physicochemical; details: 1 mM, 150 mM PB pH 7.4, 20 °C, over 5 h
Experimental: as §2

THP1-Dual cells [9] = assay: Intracellular platinum accumulation in vitro by ICP-MS; assay type: cell-based, human; details: 3 h exposure, compared to oxaliplatin
Experimental: The THP1-Dual cell model was seeded at 1 × 10^6 cells per well in six-well plates. After 24 h of recovery, the compounds were applied at the concentrations indicated in triplicate. After 3 h of drug exposure, the cells were prepared as published previously.[13] […] The lysate was filled up to 8 mL with water. The platinum concentration was determined by ICP-MS analysis. Platinum and rhenium standards were derived from CPI International (Amsterdam, the Netherlands). The total platinum content was determined with an Agilent 7800 quadrupole-based ICP-MS instrument (Agilent Technologies, Tokyo, Japan) equipped with an Agilent SPS 4 autosampler (Agilent Technologies, Tokyo, Japan) and a MicroMist nebulizer at a sample uptake rate of approximately 0.2 mL min^−1. […] Argon was used as a plasma gas (15 L min^−1) and as a carrier gas (∼1.1 L min^−1). The dwell time was set to 0.1 s and the measurements were performed in 12 replicates with 100 sweeps. Rhenium served as an internal standard for platinum.

[10] = H-151 10 μM added 2 h before the compounds
[11] = 24 h, maximal response relative to SR-717

Compound: CCc1ccc(NC(=O)Nc2c[nH]c3ccccc23)cc1 [H-151]
- effect on agonist- and prodrug-induced IRF reporter signal [1, 10]: completely abolished
- effect on agonist- and prodrug-induced NF-κB reporter signal [2, 10]: completely abolished

Compound: COc1cc2cc(C(=O)CCC(=O)O)sc2cc1OC [MSA-2]
- IRF EC50 ratio fold MSA-2 ([1]; 24 h): 1.0 fold
- activation of IRF signaling pathway ([1]; 24 h): robustly activated
- fold lower IRF-inducing activity compared to SR-717 ([1]; 24 h): ~3.1 fold
- IRF %EMAX of MSA-2 ([1]; 24 h, maximal response relative to MSA-2, highest tested dose 100 μM): 100%
- EC50 [1]: 9.1 µM
- impact of reducing conditions on IRF-induced reporter signal (AUC ratio +AA/−AA) ([1]; AA 50 μM): no notable modulation
- IC50 [3]: > 75 µM
- mRNA induction of immune response genes (IFN-β, ISG15, IFIT1, CXCL10, CCL5) (THP1-Dual cells [4]): distinctly induced
- DNA damage (p-H2A.X upregulation, cleavage of caspase-3 and PARP) (THP1-Dual cells [5]): induced DNA damage
- induction of ISG15 (THP1-Dual cells [5]): triggered
- phosphorylation of NF-κB (p65) (THP1-Dual cells [5]): only detected in cells treated with MSA-2
- NF-κB EC50 ratio fold MSA-2 ([2]; 24 h): 1.0 fold
- activation of NF-κB signaling pathway ([2]; 24 h): robustly activated
- NF-κB %EMAX of MSA-2 ([2]; 24 h, maximal response relative to MSA-2): 100%
- EC50 [2]: 17.7 µM
- tumor growth (CT-26 tumors): significantly inhibited malignant growth
- secretion of cytokines and chemokines (THP1-Dual cells [6]): induced distinct secretion of cytokines and chemokines

Compound: CC(=O)[O][Pt-2]12([O]C(=O)c3cc(F)c(F)cc3N)([NH2+][C@@H]3CCCC[C@H]3[NH2+]1)[O]C(=O)C(=O)[O]2 [Ox-Bz-F2-NH2]
- original compound left in presence of AA [7]: approximately 80%

Compound: CC(=O)Nc1cc(F)c(F)cc1C(=O)[O][Pt-2]12([O]C(C)=O)([NH2+][C@@H]3CCCC[C@H]3[NH2+]1)[O]C(=O)C(=O)[O]2 [Ox-Bz-F2-NHAc]
- original compound left in presence of AA [7]: 40%

Compound: CC(=O)[O][Pt-2]12([O]C(=O)c3ccc(F)c(F)c3)([NH2+][C@@H]3CCCC[C@H]3[NH2+]1)[O]C(=O)C(=O)[O]2 [Ox-Bz-F2]
- original compound left in presence of AA [7]: approximately 95%

Compound: CC(=O)[O][Pt-2]12([O]C(=O)c3ccccc3)([NH2+][C@@H]3CCCC[C@H]3[NH2+]1)[O]C(=O)C(=O)[O]2 [Ox-Bz]
- original compound left in presence of AA [7]: approximately 95%

Compound: COCCOCCOCCOCCC(=O)[O][Pt-2]12([O]C(=O)c3cc(F)c(F)cc3NC(=O)c3ccc(-n4ccnc4)nn3)([NH2+][C@@H]3CCCC[C@H]3[NH2+]1)[O]C(=O)C(=O)[O]2 [Ox-SR-PEG-Es]
- IRF %EMAX of SR-717 [1, 11]: 66%
- EC50 [1]: 12.4 µM
- NF-κB %EMAX of SR-717 [2, 11]: 52%
- EC50 [2]: 35.1 µM
- hydrolytic stability [8]: No significant hydrolysis
- original prodrug remaining in presence of AA ([7]; after ∼3 h): only traces
- cellular platinum accumulation (THP1-Dual cells [9]): significantly higher platinum levels compared to oxaliplatin
